Reference: patent US11162124B2, “Alcohol dehydrogenase mutant and application thereof in cofactor regeneration” (Jiangnan University, priority 2018, dated 2021)
Where a chain is given by its changes, count along the chain named.

How the values were obtained:
Format in all cases: biochemical
[1] = molecular target: T1, alcohol dehydrogenase KpADH mutant M5 (V84I/Y127M; parent SEQ ID No. 1) (Vanderwaltozyma polyspora, UniProt A7TM80, V84I/Y127M); test: Kinetic analysis of KpADH mutant M5 toward diol co-substrates; conditions: mutant M5 relative to wild-type KpADH
T1 sequence (A7TM80 1-342 V84I/Y127M): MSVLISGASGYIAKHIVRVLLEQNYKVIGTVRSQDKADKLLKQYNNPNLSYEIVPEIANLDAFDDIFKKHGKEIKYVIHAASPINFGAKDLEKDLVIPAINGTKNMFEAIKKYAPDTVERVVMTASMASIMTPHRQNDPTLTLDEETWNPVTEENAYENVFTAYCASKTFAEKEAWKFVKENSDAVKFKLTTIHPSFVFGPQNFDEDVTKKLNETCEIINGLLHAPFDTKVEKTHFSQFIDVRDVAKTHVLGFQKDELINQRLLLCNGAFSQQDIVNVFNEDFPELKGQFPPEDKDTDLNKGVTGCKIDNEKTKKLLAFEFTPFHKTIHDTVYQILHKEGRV
Description: the M5 is obtained by mutating valine at position 84 into isoleucine and tyrosine at position 127 into methionine in alcohol dehydrogenase having an original amino acid sequence as set forth in SEQ ID No. 1.
(§1) Changes in absorbance at 340 nm are measured.
(§2) The enzyme activity is calculated using the following formula: Enzyme activity (U)=EW×V×10^3/(6220×I);
(§3) In the formula, EW is the change in absorbance at 340 nm in 1 min; V is the volume of the reaction solution in mL; 6220 is the molar extinction coefficient of NAD(P)H in L/(mol·cm); I is optical distance in cm.
(§4) One unit of activity (U) corresponds to the amount of enzyme required for the catalytic oxidation of 1 μmol NADP^+ per minute under the above conditions.
(§5) Kinetic measurement is conducted according to the enzyme activity assay, with 10 μL of alcohol substrates of different concentrations, 1 mM NADP^+, 10 μL of enzymes of appropriate concentrations, 170 μL of glycine-sodium hydroxide buffer at pH 9.5, with each sample in triplicate. […] The calculation formulas are as follows: […]
(§6) The Vmax and Km values can be calculated from the intercepts of the double reciprocal plot on the X and Y axes;
(§7) The kcat value can be further calculated according to the formula.
(§8) The activity of KpADH under different substrate concentrations and cofactor concentrations was measured, and a double reciprocal plot was made according to the reciprocals of the activity and substrate concentration. The kinetic parameters were calculated.
(§9) The activity of KpADH under different substrate concentrations and cofactor concentrations was measured, and a double reciprocal plots were made according to the reciprocals of the activity and substrate concentration. The kinetic parameters were calculated.

[2] = molecular target: T2, alcohol dehydrogenase KpADH mutant M3 (Y127M; parent SEQ ID No. 1) (Vanderwaltozyma polyspora, UniProt A7TM80, Y127M); test: Kinetic analysis of KpADH mutant M3 toward diol co-substrates; conditions: for catalytic efficiency kcat/Km, times that of wild-type KpADH: mutant M3 relative to wild-type KpADH
T2 sequence (A7TM80 1-342 Y127M): T1 sequence (A7TM80 1-342 V84I/Y127M) with I84V
Description: M3 is obtained by mutating tyrosine at position 127 into methionine in alcohol dehydrogenase having an original amino acid sequence as set forth in SEQ ID No. 1;
as §1, §2, §3, §4, §5, §6, §7, §8, §9

[3] = molecular target: alcohol dehydrogenase KpADH, wild type, SEQ ID No. 1 (Vanderwaltozyma polyspora, UniProt A7TM80); test: Kinetic analysis of wild-type KpADH toward diol co-substrates; conditions: 1 mM NADP+, Gly-NaOH pH 9.5, 30° C.
Description: as §1, §2, §3
(§10) One unit of activity (U) corresponds to the amount of enzyme required for the catalytic oxidation of 1 μmol NADP^+ per minute under the above conditions. […]
as §6, §7, §8, §9

[4] = molecular target: T3, alcohol dehydrogenase KpADH mutant M2 (Y127C; parent SEQ ID No. 1) (Vanderwaltozyma polyspora, UniProt A7TM80, Y127C); test: Kinetic analysis of KpADH mutant M2 toward diol co-substrates
T3 sequence (A7TM80 1-342 Y127C): T1 sequence (A7TM80 1-342 V84I/Y127M) with I84V, M127C
Description: M2 is obtained by mutating tyrosine at position 127 into cysteine in alcohol dehydrogenase having an original amino acid sequence as set forth in SEQ ID No. 1;
as §1, §2, §3, §10, §6, §7, §8, §9

[5] = molecular target: T4, alcohol dehydrogenase KpADH mutant M1 (V84I; parent SEQ ID No. 1) (Vanderwaltozyma polyspora, UniProt A7TM80, V84I); test: Kinetic analysis of KpADH mutant M1 toward diol co-substrates
T4 sequence (A7TM80 1-342 V84I): T1 sequence (A7TM80 1-342 V84I/Y127M) with M127Y
Description: M1 is obtained by mutating valine at position 84 into isoleucine in alcohol dehydrogenase having an original amino acid sequence as set forth in SEQ ID No. 1;
as §1, §2, §3, §4, §5, §6, §7, §8, §9

[6] = mutant M1, 1 mM NADP+, Gly-NaOH pH 9.5, 30° C.
[7] = mutant M1 relative to wild-type KpADH

SMILES | kcat/Km value, times that of wild-type KpADH [1] | catalytic efficiency kcat/Km, times that of wild-type KpADH [2] | Km [3] | kcat [3] | catalytic rates kcat ([2]; mutant M3) | catalytic rates kcat [4] | kcat [5, 6] | kcat/KM [5, 6] | kcat value, times that of wild-type KpADH [5, 7] | kcat/Km value, times that of wild-type KpADH [5, 7]
OCCCCCO [1,5-pentanediol] | 3.14 times | 4.36 times |  |  |  |  |  |  |  | 
OCCCCCCO [1,6-hexanediol] | 5.3 times | 2.69 times | 18.5 ± 1.5 mM | 0.698 ± 0.015 s⁻¹ |  |  |  |  |  | 
OCCCCO [1,4-butanediol] | 14.7 times |  |  |  | 16.8 mM | 27.8 mM | 1.26 ± 0.0217 s⁻¹ | 10.3 M⁻¹ s⁻¹ | 7.3 times | 4.53 times
